This assay relates to dopaminergic neurons in the PPL brain region. The assay can be described thus: Dopaminergic neuron morphology and quantity in PPL brain regions of PD model fruit flies after 30 days of drug feeding. The class given is in vivo, Drosophila melanogaster. Particulars: fruit fly PD models (alpha-synuclein overexpression, Lrrk2 overexpression, Parkin mutation, Pink1 mutation); for effect on degenerative death/loss of dopaminergic neurons in the PPL brain region (morphology and quantity): 1 μg/mL in feed for 30 days.

Method: Animal models of PD caused by alpha-synuclein transgene overexpression, Lrrk2 transgene overexpression, Parkin gene mutation and Pink1 gene mutation were established in the four model groups. Each group includes 90 fruit flies and each group was further equally divided into three groups, drug-feeding groups and non-drug-feeding control group, for testing. Starting from imago at the age of 5 days, the drug-feeding group was continuously fed with 0.1 μg/mL, 1 μg/mL U0126 (U0126 is dissolved in 1% DMSO) for 30 days and the non-drug-feeding control group was fed with 1% DMSO as a solvent control. After 30 days of drug or control solvent feeding, the brains of fruit flies were dissected and the dopamine neurons were labeled by the whole-tissue immunostaining of the brains of the fruit flies with an anti-dopamine hydroxylase antibody. The morphology and quantity of the dopamine neurons in the PPL regions in the brains of the fruit flies were observed microscopically to determine the effect of U0126 on the dopaminergic neurons in the local brain regions.
Animal models of PD caused by alpha-synuclein transgene overexpression, Lrrk2 transgene overexpression, Parkin gene mutation and Pink1 gene mutation were established in the four model groups. Each group includes 90 fruit flies and each group was further equally divided into 2 drug-feeding groups and 1 non-drug-feeding control group for testing. […] The morphology and quantity of the dopamine neurons in the PPL regions in the brains of the fruit flies were observed microscopically to determine the effect of PD0325901 on the dopaminergic neurons in the local brain regions of the fruit flies.
Animal models of PD caused by alpha-synuclein transgene overexpression, Lrrk2 transgene overexpression, Parkin gene mutation and Pink1 gene mutation were established in the four model groups. […] The morphology and quantity of the dopamine neurons in the PPL regions in the brains of the fruit flies were observed microscopically to determine the effect of trametinib on the dopaminergic neurons in the local brain regions of the fruit flies.

For the compound `O=C(NOC[C@H](O)CO)c1ccc(F)c(F)c1Nc1ccc(I)cc1F` [PD0325901], the “effect on degenerative death/loss of dopaminergic neurons in the PPL brain region (morphology and quantity)” value was “can effectively reverse the degenerative loss of the dopaminergic neurons”.

For the compound `N#CC(=C(/N)Sc1ccccc1N)/C(C#N)=C(\N)Sc1ccccc1N` [U0126], the “effect on degenerative death/loss of dopaminergic neurons in the PPL brain region (morphology and quantity)” value was “can effectively reverse the degenerative death of the dopaminergic neurons”.

Regarding `CC(=O)Nc1cccc(-n2c(=O)n(C3CC3)c(=O)c3c(Nc4ccc(I)cc4F)n(C)c(=O)c(C)c32)c1` [trametinib], the “effect on degenerative death of dopaminergic neurons in the PPL brain region (morphology and quantity)” value (16.24 μM/mL in feed for 30 days) is on record as “can effectively reverse the degenerative death of the dopaminergic neurons”.
